This is an account of results in publication PMC10885153, “Membrane Permeability in a Large Macrocyclic Peptide Driven by a Saddle-Shaped Conformation” (Journal of the American Chemical Society, 2024).

Positions of bridges follow the written chain, without caps; N, C: chain ends. Non-standard residues stand in square brackets, D forms with d. Residues, ends and D or L forms follow the SMILES beside them. Cha = N[C@@H](CC1CCCCC1)C(=O)O; NMeAbu = CC[C@H](NC)C(=O)O; NMeC = CN[C@@H](CS)C(=O)O; NMeA = CN[C@@H](C)C(=O)O; dAbu = CC[C@@H](N)C(=O)O; dNMeA = CN[C@H](C)C(=O)O; Nva = CCC[C@H](N)C(=O)O; Abu = CC[C@H](N)C(=O)O; NPrGly = CCCNCC(=O)O; NEtG = CCNCC(=O)O

Settings in one data set: not given
For `CCOC(=O)[C@@H]1CSCC(=O)N[C@H](CC)C(=O)N(C)[C@@H](C)C(=O)N[C@H](CC(C)C)C(=O)N2CCC[C@@H]2C(=O)N(CC)CC(=O)N[C@@H](CC(C)C)C(=O)N(C)[C@@H](C)C(=O)N[C@@H](CC(C)C)C(=O)N1C` [JF206_ADD_DDLL_Ethyl] ({CH2CO}-[dAbu][NMeA][dL][dP][NEtG]L[NMeA]L[NMeC]-OEt; thioether N-9), the “PAMPA Pe_avg” value was 0 ×10⁻⁶ cm/s.

For `CCOC(=O)[C@@H]1CSCC(=O)N[C@H](CC)C(=O)N(C)[C@@H](C)C(=O)N[C@@H](CC(C)C)C(=O)N2CCC[C@@H]2C(=O)N(CC)CC(=O)N[C@H](CC(C)C)C(=O)N(C)[C@H](C)C(=O)N[C@@H](CC(C)C)C(=O)N1C` [JF206_ADD_DLDD_Ethyl] ({CH2CO}-[dAbu][NMeA]L[dP][NEtG][dL][dNMeA]L[NMeC]-OEt; thioether N-9), the “PAMPA Pe_avg” value was 0 ×10⁻⁶ cm/s.

Regarding `CCOC(=O)[C@@H]1CSCC(=O)N[C@@H](CC)C(=O)N(C)[C@@H](C)C(=O)N[C@H](CC(C)C)C(=O)N2CCC[C@@H]2C(=O)N(CC)CC(=O)N[C@@H](CC(C)C)C(=O)N(C)[C@H](C)C(=O)N[C@@H](CC(C)C)C(=O)N1C` [JF206_ADL_LDLD_Ethyl] ({CH2CO}-[Abu][NMeA][dL][dP][NEtG]L[dNMeA]L[NMeC]-OEt; thioether N-9), the “PAMPA Pe_avg” value is 0 ×10⁻⁶ cm/s.

With `CCOC(=O)[C@@H]1CSCC(=O)N[C@H](CC)C(=O)N(C)[C@@H](C)C(=O)N[C@@H](CC(C)C)C(=O)N2CCC[C@H]2C(=O)N(CC)CC(=O)N[C@H](CC(C)C)C(=O)N(C)[C@H](C)C(=O)N[C@@H](CC(C)C)C(=O)N1C` [JF206_ALD_DLDD_Ethyl] ({CH2CO}-[dAbu][NMeA]LP[NEtG][dL][dNMeA]L[NMeC]-OEt; thioether N-9), the “PAMPA Pe_avg” value was determined as 0 ×10⁻⁶ cm/s.

The same data set, now with this note: PAMPA, 10 µM, pH 7.4.
Regarding `CCC[C@@H]1NC(=O)[C@H](C)N(C)C(=O)[C@H](CC(C)C)NC(=O)CSC[C@@H](C(=O)OCC)N(C)C(=O)[C@H](CC(C)C)NC(=O)[C@H](C)N(C)C(=O)[C@H](CC)NC(=O)CN(CC)C(=O)[C@H]2CCCN2C1=O` [LA01, O=C(N(C)[C@H](C(OCC)=O)CSCC(N[C@H](C(N(C)[C@@H](C)C(N[C@@H](CCC)C(N1[C@H](CCC1)C(N(CC)CC(N[C@H]2CC)=O)=O)=O)=O)=O)CC(C)C)=O)[C@H](CC(C)C)NC([C@H](C)N(C)C2=O)=O] ({CH2CO}-L[NMeA][Nva][dP][NEtG][Abu][NMeA]L[NMeC]-OEt; thioether N-9), the “%R_avg” value was 33.1%.

Turning to `CCC[C@@H]1NC(=O)[C@H](C)N(C)C(=O)[C@H](CC(C)C)NC(=O)CSC[C@@H](C(=O)OCC)N(C)C(=O)[C@H](CC(C)C)NC(=O)[C@H](C)N(C)C(=O)[C@H](CC)NC(=O)CN(CCC)C(=O)[C@H]2CCCN2C1=O` [LA03, O=C(N(C)[C@H](C(OCC)=O)CSCC(N[C@H](C(N(C)[C@@H](C)C(N[C@@H](CCC)C(N1[C@H](CCC1)C(N(CCC)CC(N[C@H]2CC)=O)=O)=O)=O)=O)CC(C)C)=O)[C@H](CC(C)C)NC([C@H](C)N(C)C2=O)=O] ({CH2CO}-L[NMeA][Nva][dP][NPrGly][Abu][NMeA]L[NMeC]-OEt; thioether N-9), the “%R_avg” value is recorded as 25.8%.

Take `CCC[C@@H]1NC(=O)[C@H](C)N(C)C(=O)[C@H](CC(C)C)NC(=O)CSC[C@@H](C(=O)OCC)N(C)C(=O)[C@H](CC(C)C)NC(=O)[C@H](C)N(C)C(=O)[C@H](CC(C)C)NC(=O)CN(CC)C(=O)[C@H]2CCCN2C1=O` [LA05, O=C(N(C)[C@H](C(OCC)=O)CSCC(N[C@H](C(N(C)[C@@H](C)C(N[C@@H](CCC)C(N1[C@H](CCC1)C(N(CC)CC(N[C@H]2CC(C)C)=O)=O)=O)=O)=O)CC(C)C)=O)[C@H](CC(C)C)NC([C@H](C)N(C)C2=O)=O] ({CH2CO}-L[NMeA][Nva][dP][NEtG]L[NMeA]L[NMeC]-OEt; thioether N-9): the “%R_avg” value is given as 12.8%.

`CCOC(=O)[C@@H]1CSCC(=O)N[C@@H](CC(C)C)C(=O)N(C)[C@@H](C)C(=O)N[C@@H](CC(C)C)C(=O)N2CCC[C@@H]2C(=O)N(CC)CC(=O)N[C@@H](CC(C)C)C(=O)N(C)[C@@H](C)C(=O)N[C@@H](CC(C)C)C(=O)N1C` [LA06, O=C(N(C)[C@H](C(OCC)=O)CSCC(N[C@H](C(N(C)[C@@H](C)C(N[C@@H](CC(C)C)C(N1[C@H](CCC1)C(N(CC)CC(N[C@H]2CC(C)C)=O)=O)=O)=O)=O)CC(C)C)=O)[C@H](CC(C)C)NC([C@H](C)N(C)C2=O)=O] ({CH2CO}-L[NMeA]L[dP][NEtG]L[NMeA]L[NMeC]-OEt; thioether N-9): the “%R_avg” value was 5.1%.

Take `CCOC(=O)[C@@H]1CSCC(=O)N[C@@H](CC(C)C)C(=O)N(C)[C@@H](C)C(=O)N[C@@H](CC(C)C)C(=O)N2CCC[C@@H]2C(=O)N(CC)CC(=O)N[C@@H](CC2CCCCC2)C(=O)N(C)[C@@H](C)C(=O)N[C@@H](CC(C)C)C(=O)N1C` [LA10, O=C(N(C)[C@H](C(OCC)=O)CSCC(N[C@H](C(N(C)[C@@H](C)C(N[C@@H](CC(C)C)C(N1[C@H](CCC1)C(N(CC)CC(N[C@H]2CC3CCCCC3)=O)=O)=O)=O)=O)CC(C)C)=O)[C@H](CC(C)C)NC([C@H](C)N(C)C2=O)=O] ({CH2CO}-L[NMeA]L[dP][NEtG][Cha][NMeA]L[NMeC]-OEt; thioether N-9): the “%R_avg” value is recorded as 13.0% and the Pe_avg worked out at 0 ×10⁻⁶ cm/s.

For `CCC[C@@H]1NC(=O)[C@H](C)N(C)C(=O)[C@H](CC(C)C)NC(=O)CSC[C@@H](C(=O)OCC)N(C)C(=O)[C@H](CC(C)C)NC(=O)[C@H](C)N(C)C(=O)[C@H](CC2CCCCC2)NC(=O)CN(CCC)C(=O)[C@H]2CCCN2C1=O` [LA11, O=C(N(C)[C@H](C(OCC)=O)CSCC(N[C@H](C(N(C)[C@@H](C)C(N[C@@H](CCC)C(N1[C@H](CCC1)C(N(CCC)CC(N[C@H]2CC3CCCCC3)=O)=O)=O)=O)=O)CC(C)C)=O)[C@H](CC(C)C)NC([C@H](C)N(C)C2=O)=O] ({CH2CO}-L[NMeA][Nva][dP][NPrGly][Cha][NMeA]L[NMeC]-OEt; thioether N-9), the “%R_avg” value came to 6.5%.

For `CCCN1CC(=O)N[C@@H](CC2CCCCC2)C(=O)N(C)[C@@H](C)C(=O)N[C@@H](CC(C)C)C(=O)N(C)[C@H](C(=O)OCC)CSCC(=O)N[C@@H](CC(C)C)C(=O)N(C)[C@@H](C)C(=O)N[C@@H](CC(C)C)C(=O)N2CCC[C@@H]2C1=O` [LA12, O=C(N(C)[C@H](C(OCC)=O)CSCC(N[C@H](C(N(C)[C@@H](C)C(N[C@@H](CC(C)C)C(N1[C@H](CCC1)C(N(CCC)CC(N[C@H]2CC3CCCCC3)=O)=O)=O)=O)=O)CC(C)C)=O)[C@H](CC(C)C)NC([C@H](C)N(C)C2=O)=O] ({CH2CO}-L[NMeA]L[dP][NPrGly][Cha][NMeA]L[NMeC]-OEt; thioether N-9), the “%R_avg” value came out at 9.2% and the Pe_avg worked out at 0 ×10⁻⁶ cm/s.

Consider `CCC[C@@H]1NC(=O)CN(CC)C(=O)[C@H](CC(C)C)NC(=O)CSC[C@@H](C(=O)OCC)N(C)C(=O)[C@H](CC(C)C)NC(=O)[C@H](C)N(C)C(=O)[C@H](CC)NC(=O)[C@H](C)N(C)C(=O)[C@H]2CCCN2C1=O` [LB01, O=C(N(C)[C@H](C(OCC)=O)CSCC(N[C@H](C1=O)CC(C)C)=O)[C@H](CC(C)C)NC([C@H](C)N(C)C([C@H](CC)NC([C@H](C)N(C)C([C@@H]2N(C([C@H](CCC)NC(CN1CC)=O)=O)CCC2)=O)=O)=O)=O] ({CH2CO}-L[NEtG][Nva][dP][NMeA][Abu][NMeA]L[NMeC]-OEt; thioether N-9), for which the “%R_avg” value worked out at 62.4%.

Take `CCC[C@@H]1NC(=O)CN(CCC)C(=O)[C@H](CC(C)C)NC(=O)CSC[C@@H](C(=O)OCC)N(C)C(=O)[C@H](CC(C)C)NC(=O)[C@H](C)N(C)C(=O)[C@H](CC)NC(=O)[C@H](C)N(C)C(=O)[C@H]2CCCN2C1=O` [LB03, O=C(N(C)[C@H](C(OCC)=O)CSCC(N[C@H](C1=O)CC(C)C)=O)[C@H](CC(C)C)NC([C@H](C)N(C)C([C@H](CC)NC([C@H](C)N(C)C([C@@H]2N(C([C@H](CCC)NC(CN1CCC)=O)=O)CCC2)=O)=O)=O)=O] ({CH2CO}-L[NPrGly][Nva][dP][NMeA][Abu][NMeA]L[NMeC]-OEt; thioether N-9): the “%R_avg” value stood at 61.4%.

Turning to `CCOC(=O)[C@@H]1CSCC(=O)N[C@@H](CC(C)C)C(=O)N(CC)CC(=O)N[C@@H](CC(C)C)C(=O)N2CCC[C@@H]2C(=O)N(C)[C@@H](C)C(=O)N[C@@H](CC(C)C)C(=O)N(C)[C@@H](C)C(=O)N[C@@H](CC(C)C)C(=O)N1C` [LB06, O=C(N(C)[C@H](C(OCC)=O)CSCC(N[C@H](C1=O)CC(C)C)=O)[C@H](CC(C)C)NC([C@H](C)N(C)C([C@H](CC(C)C)NC([C@H](C)N(C)C([C@@H]2N(C([C@H](CC(C)C)NC(CN1CC)=O)=O)CCC2)=O)=O)=O)=O] ({CH2CO}-L[NEtG]L[dP][NMeA]L[NMeA]L[NMeC]-OEt; thioether N-9), the “%R_avg” value amounted to 12.6%.

Take `CCOC(=O)[C@@H]1CSCC(=O)N[C@@H](CC(C)C)C(=O)N(CC)CC(=O)N[C@@H](CC(C)C)C(=O)N2CCC[C@@H]2C(=O)N(C)[C@@H](C)C(=O)N[C@@H](CC2CCCCC2)C(=O)N(C)[C@@H](C)C(=O)N[C@@H](CC(C)C)C(=O)N1C` [LB10, O=C(N(C)[C@H](C(OCC)=O)CSCC(N[C@H](C1=O)CC(C)C)=O)[C@H](CC(C)C)NC([C@H](C)N(C)C([C@H](CC2CCCCC2)NC([C@H](C)N(C)C([C@@H]3N(C([C@H](CC(C)C)NC(CN1CC)=O)=O)CCC3)=O)=O)=O)=O] ({CH2CO}-L[NEtG]L[dP][NMeA][Cha][NMeA]L[NMeC]-OEt; thioether N-9): the “%R_avg” value stood at 8.0%.

In the case of `CCC[C@@H]1NC(=O)[C@H](C)N(C)C(=O)[C@H](CC(C)C)NC(=O)CSC[C@@H](C(=O)OCC)N(C)C(=O)[C@H](CC(C)C)NC(=O)[C@H](C)N(C)C(=O)[C@H](CC)NC(=O)[C@H](CC)N(C)C(=O)[C@H]2CCCN2C1=O` [LC01, O=C(N(C)[C@H](C(OCC)=O)CSCC(N[C@H](C(N(C)[C@@H](C)C(N[C@@H](CCC)C(N1[C@H](CCC1)C(N(C)[C@@H](CC)C(N[C@H]2CC)=O)=O)=O)=O)=O)CC(C)C)=O)[C@H](CC(C)C)NC([C@H](C)N(C)C2=O)=O] ({CH2CO}-L[NMeA][Nva][dP][NMeAbu][Abu][NMeA]L[NMeC]-OEt; thioether N-9), the “%R_avg” value is recorded as 30.1%.
